Assay results reported in ChEMBL document CHEMBL3425477, “Compounds from the insect Blaps japanensis with COX-1 and COX-2 inhibitory activities” (Bioorg Med Chem Lett, 2015).
pIC50: −log10 of the molar value. Each block holds one compound with its values, some of them ahead of it.

How the values were obtained:
[1] = target: T1, Prostaglandin G/H synthase 2 (Homo sapiens, UniProt P35354); test: Inhibition of human recombinant COX2 pre-incubated for 15 mins followed by addition of heme and fluorometric substrate and further incubated for 15 mins in presence of arachidonic acid by fluorescence based assay
T1 sequence (P35354 whole entry): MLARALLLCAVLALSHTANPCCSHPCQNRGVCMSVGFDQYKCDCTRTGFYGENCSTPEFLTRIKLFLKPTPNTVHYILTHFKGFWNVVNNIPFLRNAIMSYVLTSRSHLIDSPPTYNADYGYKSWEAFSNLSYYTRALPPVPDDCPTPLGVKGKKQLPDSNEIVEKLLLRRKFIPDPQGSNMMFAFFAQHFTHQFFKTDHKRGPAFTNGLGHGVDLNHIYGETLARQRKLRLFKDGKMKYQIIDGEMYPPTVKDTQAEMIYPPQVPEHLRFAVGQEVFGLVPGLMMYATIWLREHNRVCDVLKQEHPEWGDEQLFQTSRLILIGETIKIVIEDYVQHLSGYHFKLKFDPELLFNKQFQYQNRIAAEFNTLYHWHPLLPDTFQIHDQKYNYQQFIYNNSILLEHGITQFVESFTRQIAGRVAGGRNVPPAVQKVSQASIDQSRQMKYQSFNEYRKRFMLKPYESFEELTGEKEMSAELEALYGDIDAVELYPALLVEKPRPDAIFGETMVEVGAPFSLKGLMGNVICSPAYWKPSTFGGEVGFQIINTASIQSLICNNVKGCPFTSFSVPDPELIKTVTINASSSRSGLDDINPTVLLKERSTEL

[2] = target: T2, Prostaglandin G/H synthase 1 (Ovis aries, UniProt P05979); test: Inhibition of ovine COX1 pre-incubated for 15 mins followed by addition of heme and fluorometric substrate and further incubated for 15 mins in presence of arachidonic acid by fluorescence based assay
T2 sequence (P05979 whole entry): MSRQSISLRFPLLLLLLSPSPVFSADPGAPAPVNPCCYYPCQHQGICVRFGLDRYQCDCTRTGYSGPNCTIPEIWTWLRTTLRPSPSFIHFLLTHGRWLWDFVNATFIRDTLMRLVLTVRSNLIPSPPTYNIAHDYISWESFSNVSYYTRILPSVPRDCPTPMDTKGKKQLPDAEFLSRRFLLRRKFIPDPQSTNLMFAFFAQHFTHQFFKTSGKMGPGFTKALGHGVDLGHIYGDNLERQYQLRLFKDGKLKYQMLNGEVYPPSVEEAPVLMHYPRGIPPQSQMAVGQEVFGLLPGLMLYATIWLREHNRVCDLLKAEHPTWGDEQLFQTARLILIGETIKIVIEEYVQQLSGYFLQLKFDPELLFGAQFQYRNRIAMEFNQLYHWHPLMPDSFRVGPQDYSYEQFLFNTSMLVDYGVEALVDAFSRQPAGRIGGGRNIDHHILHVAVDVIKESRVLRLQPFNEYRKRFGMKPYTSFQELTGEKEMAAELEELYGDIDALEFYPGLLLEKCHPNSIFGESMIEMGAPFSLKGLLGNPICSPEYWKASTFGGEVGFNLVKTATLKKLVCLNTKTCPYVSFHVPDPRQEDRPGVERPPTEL

- pIC50 [1]: 5.08
- IC50 [2]: Not Active
SMILES: CO[C@@]1(c2ccc(O)c(O)c2)Oc2ccc(CCO)cc2O[C@@H]1O

- pIC50 [1]: 5.07
- IC50 [2]: Not Active
SMILES: CCO[C@]1(c2ccc(O)c(O)c2)Oc2cc(CCO)ccc2O[C@H]1O

- pIC50 [1]: 4.75
- IC50 [2]: Not Active
SMILES: CO[C@@]1(c2ccc(O)c(O)c2)Oc2cc(CCO)ccc2O[C@@H]1O

- pIC50 [1]: 5.59
- IC50 [2]: Not Active
SMILES: CC(=O)NCCc1ccc2c(c1)O[C@H](NC(C)=O)[C@@H](c1ccc(O)c(O)c1)O2

- pIC50 [1]: 5.89
- IC50 [2]: Not Active
SMILES: CC(=O)N[C@H]1Oc2cc(CCO)ccc2O[C@@H]1c1ccc(O)c(O)c1 (relative stereo)

- pIC50 [1]: 5.60
- IC50 [2]: Not Active
SMILES: CC(=O)N[C@H]1Oc2ccc(CCO)cc2O[C@@H]1c1ccc(O)c(O)c1 (relative stereo)

- pIC50 [1]: 5.57
- pIC50 ([2]; read-out: IC50): 4.86
SMILES: CC(=O)/N=C/Cc1ccc2c(c1)O[C@H](c1ccc(O)c(O)c1)[C@@H](NC(C)=O)O2 (relative stereo)

More lines, now with the values behind:

SMILES: CCO[C@@]1(c2ccc(O)c(O)c2)Oc2ccc(CCO)cc2O[C@@H]1O
- pIC50 [1]: 5.60
- IC50 [2]: Not Active

SMILES: CCOC1(c2ccc(O)c(O)c2)Oc2ccc(CCO)cc2OC1O (stereo unspecified)
- pIC50 [1]: 5.22
- IC50 [2]: Not Active

SMILES: CO[C@]1(c2ccc(O)c(O)c2)Oc2ccc(CCO)cc2O[C@H]1O
- pIC50 [1]: 5.22
- IC50 [2]: Not Active

SMILES: CCO[C@@]1(c2ccc(O)c(O)c2)Oc2cc(CCO)ccc2O[C@@H]1O
- pIC50 [1]: 4.86
- IC50 [2]: Not Active

SMILES: CO[C@]1(c2ccc(O)c(O)c2)Oc2cc(CCO)ccc2O[C@H]1O
- pIC50 [1]: 5.01
- IC50 [2]: Not Active

SMILES: CC(=O)NCCc1ccc2c(c1)O[C@H](c1ccc(O)c(O)c1)[C@@H](NC(C)=O)O2 (relative stereo)
- pIC50 [1]: 5.44
- IC50 [2]: Not Active
